The values below come from ChEMBL document CHEMBL3997849, “Modulation of the Inhibitors of Apoptosis Proteins (IAPs) Activities for Cancer Treatment” (ACS Med Chem Lett, 2017).

Experiment [1] in a line: Inhibition of His-tagged XIAP BIR2-3 (125 to 356 residues) C202A/C213G double mutant (unknown origin) using fluorescein labeled SMAC peptide as substrate after 60 mins by HTRF assay. More on the design: species or system Homo sapiens.
Experiment [2] concerns the target E3 ubiquitin-protein ligase XIAP (Homo sapiens, UniProt P98170). In words: Inhibition of His-tagged XIAP BIR3 (241 to 356 residues) (unknown origin) using fluorescein labeled SMAC peptide as substrate after 60 mins by HTRF assay. On the technique in general: Time-resolved FRET reads energy transfer from a long-lived donor to a nearby acceptor.

Sequence of E3 ubiquitin-protein ligase XIAP (P98170 whole entry, the tested form may be a part): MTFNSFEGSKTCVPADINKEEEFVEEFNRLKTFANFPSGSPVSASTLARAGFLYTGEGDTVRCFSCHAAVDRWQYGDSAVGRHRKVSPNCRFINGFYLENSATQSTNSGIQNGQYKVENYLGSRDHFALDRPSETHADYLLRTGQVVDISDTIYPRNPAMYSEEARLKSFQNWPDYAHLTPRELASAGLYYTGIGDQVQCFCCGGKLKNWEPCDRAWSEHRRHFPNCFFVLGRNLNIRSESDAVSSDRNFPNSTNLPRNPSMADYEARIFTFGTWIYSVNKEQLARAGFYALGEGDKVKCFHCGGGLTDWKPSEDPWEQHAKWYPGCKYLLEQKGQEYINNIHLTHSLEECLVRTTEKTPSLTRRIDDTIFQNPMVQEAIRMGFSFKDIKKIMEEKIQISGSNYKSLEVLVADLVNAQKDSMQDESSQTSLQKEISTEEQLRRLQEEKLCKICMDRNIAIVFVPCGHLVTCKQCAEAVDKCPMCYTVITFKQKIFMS

`CN[C@@H](C)C(=O)N[C@H](C(=O)N1C[C@@H](c2ccc(C[C@H](NC(=O)[C@@H](NC(=O)[C@H](C)NC)C(C)(C)SCC(=O)N(C)C[C@@H](O)CO)C(=O)N[C@@H]3CCCc4ccccc43)cc2)C[C@H]1C(=O)N[C@@H]1CCCc2ccccc21)C(C)(C)C`: it took 12.3 nM to reach half-maximal inhibition in experiment [1] (IC50). Same read-out and setting: under `CN[C@@H](C)C(=O)N[C@H](C(=O)N[C@@H](Cc1ccc([C@H]2C[C@@H](C(=O)N[C@@H]3CCCc4ccccc43)N(C(=O)[C@@H](NC(=O)[C@H](C)NC)C(C)(C)C)C2)cc1)C(=O)N[C@@H]1CCCc2ccccc21)C(C)(C)C` stands 6.8 nM. In the case of `CN[C@@H](C)C(=O)N[C@H](C(=O)N1C[C@@H](c2ccc(CC(NC(=O)[C@@H](NC(=O)[C@H](C)NC)C(C)(C)SCC(=O)NC(CO)CO)C(=O)N[C@@H]3CCCc4ccccc43)cc2)C[C@H]1C(=O)N[C@@H]1CCCc2ccccc21)C(C)(C)C` (stereo partly specified), the IC50 was found to be 1.4 nM in experiment [2] and 8.1 nM in experiment [1]. Turning to `CN[C@@H](C)C(=O)N[C@H](C(=O)NC(Cc1ccc(NC(=O)c2ccc(C(=O)NC3C[C@@H](C(=O)N[C@@H]4CCCc5ccccc54)N(C(=O)[C@@H](NC(=O)[C@H](C)NC)C(C)(C)C)C3)cc2)cc1)C(=O)N[C@@H]1CCCc2ccccc21)C(C)(C)C` (stereo partly specified), the results for the IC50 in experiment [2] and in experiment [1] were 119 nM and 9.5 nM, respectively.

Broadly, the IC50 is the point on the concentration scale where inhibition reaches its midpoint.
